Values joined by “and” are separate entries in the source; they are usually repeats but may differ in a detail not shown here. Equal entries are not always repeated.
System: HSSY-II complex spheroid growth, percent test/control
Test: Anticancer human tumor HSSY-II cell line growth inhibition [Asc];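 note: spheroids exposed to drug for 7 days before reading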
Conditions: for viability, T/C: stronger effect = lower value
Procedure: Multicellular complex tumor spheroid response to apoptosis pathway targeting inhibitors Alrizomadlin, Pelcitoclax, and Dasminapant in combination with a variety of drugs and investigational agents in selected tumor cell lines
The MDM2 inhibitor alrizomadlin, the Bcl-2/Bcl-xL inhibitor pelcitoclax, and the IAPs inhibitor dasminapant were evaluated both individually and in combination with standard of care and investigational anticancer small molecules within a complex spheroid model of solid tumors. . Complex spheroids include a stromal component modeled by human endothelial cells (HUVEC) and fibroblasts modeled by human mesenchymal stem cells (MSCs). The concentration ranges selected for each drug and investigational agent were based upon clinically achievable concentrations if the clinical Cmax of the agent was known.
Compounds. The drugs and investigational agents: alrizomadlin (APG-115; NSC831270), pelcitoclax (APG-1252; NSC835773), dasminapant (APG-1387;NSC834197), TAK-243 (NSC785004), copanlisib (NSC809693), olaparib (NSC753686), talazoparib (NSC767125), cobimetinib (NSC 768068), eltanexor (KPT-8602, NSC 794443), abemaciclib (NSC 768073), sotorasib (NSC818433), adagrasib (NSC 831453), MRTX-1133 (NSC 836407), Iadademestat (ORY1001, NSC 806812), and RMC-4630 (NSC839698), were obtained from the NCI Developmental Therapeutics Program Chemical Repository. The FDA-approved anticancer drug set is available from the Developmental Therapeutics Program at https://dtp.cancer.gov/organization/dscb/obtaining/available plates.htm. […] The stock solutions were prepared in dimethyl sulfoxide (DMSO, Sigma-Aldrich, St. Louis, MO, cat. D2650) at 800-fold the tested concentration and stored at -70 degrees C prior to their use. All drugs and investigational agents were tested over a range starting from a high concentration at or near the clinical Cmax and decreasing in half-log increments. If the clinical Cmax for an agent had not been determined, the highest concentration tested was 10 microM.
The patient-derived cancer (PDC) cell lines include five colon adenocarcinomas: 186277-243-T-J2-PDC, 616215-338-R-J1-PDC, 439559-082-T-J2-PDC, 463943-066-T-J2-PDC, and 519858-162-T-J1-PDC; three pancreatic carcinomas: 323965-272-R-J2-PDC, 521955-158-R6-J3-PDC, and 521955-158-R2-J5-PDC; two uterine sarcomas: 327498-152-R-J2-PDC and 993429-296-R-J1-PDC; two rhabdomyosarcomas: 755483-174-R-J1-PDC and 772245-204-R-J1-PDC; two soft tissue sarcomas: 126254-015-R-J1-PDC and 494315-158-R-J1-PDC; two malignant fibrous histiocytomas: 317291-083-R-J1-PDC and 596521-263-R-J1-PDC; two breast carcinomas: 171881-019-R-J1-PDC and 885512-296-R-J2-PDC; and one ovarian carcinoma: 6556581-035-R-J-PDC were obtained from the NCI PDMR, (https://pdmr.cancer.gov). The established cell lines HSSY-2 synovial sarcoma (RRID:CVCL 8719), SYO-1 synovial sarcoma (RRID:CVCL_7146), MPNST malignant peripheral neural sheath tumor were obtained from the Sloan Kettering Institute. The following established cell lines were purchased from the American Type Culture Collection (ATCC, Manassas, VA), Sor the received from the NCI repository:, PANC-1 pancreatic carcinoma (CRL-1469, RRID:CVCL_0480), OVCAR-5 ovarian carcinoma (RRID:CVCL_1628), OVCAR-8 ovarian carcinoma (RRID:CVCL_1629), , MCF-7 breast carcinoma (CRL-12584, RRID:CVCL_0031), MDA-MB-231 breast carcinoma (CRL-12532, RRID:CVCL_0062), NCI-H1876 small cell lung carcinoma (CRL-5902, RRID:CVCL_1503), NCI-H510A small cell lung carcinoma (HTB-184, RRID:CVCL_1565), NCI-H1417 (CRL-5869, RRID:CVCL_1469), and NCI-H196 small cell lung carcinoma (CRL-5823, RRID:CVCL_1509). Dr. Peter Houghton (Greehey Children's Cancer Research Institute, University of Texas Health Science Center, San Antonio, TX) provided Rh-18 rhabdomyosarcoma (RRID:CVCL_1659). Pooled donor human umbilical vein endothelial cells (HUVEC, Lonza, cat. CC-2519) and human mesenchymal stem cells (hMSC, Lonza, cat. PT-2501) were purchased from Lonza (Walkersville, MD).
Cell Culture. […]

[1] = compound alone, run of 10/11/2022

SMILES	IC50 (curve of compound)	viability, T/C (compound 0.0316 µM)	viability, T/C (compound 0.1 µM)	viability, T/C (compound 0.316 µM)	viability, T/C (compound 1 µM)	viability, T/C (compound 0.00316 µM)	viability, T/C (compound 0.01 µM)	other results
C=CC(=O)N1CCN(c2nc(=O)n(-c3c(C)ccnc3C(C)C)c3nc(-c4c(O)cccc4F)c(F)cc23)C(C)C1 (stereo unspecified)	> 10000 nM	107% and 90.9% and 100%	108% and 97.8% and 106%	106% and 100% and 99.8%	106% and 105% and 102%	–	–	viability, T/C (compound 3.16 µM): 95.8% and 106% and 103%; viability, T/C (compound 10 µM): 66.7% and 56.7% and 70.2%
CCN1C(C(=O)NC23CCC(C(=O)O)(CC2)CC3)C(c2cccc(Cl)c2F)C2(C(=O)Nc3cc(Cl)ccc32)C12CCCCC2 (stereo unspecified)	133 nM and 135 nM	–	–	–	–	–	–	viability, T/C (compound 0.00949 µM): 99.7% and 101%; viability, T/C (compound 0.03 µM): 89.3% [middle of 15 runs]; viability, T/C (compound 0.0949 µM): 62.1% [middle of 15 runs]; viability, T/C (compound 0.3 µM): 27% [middle of 15 runs]; viability, T/C (compound 0.949 µM): 8.58% [middle of 15 runs]; viability, T/C (compound 3 µM): 2.55% [middle of 15 runs]; IC50 [1]: 143 nM [middle of 12 runs]
CNC(C)C(=O)NC1CN(S(=O)(=O)c2cccc(S(=O)(=O)N3CCC4CCC(C(=O)NC(c5ccccc5)c5ccccc5)N4C(=O)C(NC(=O)C(C)NC)C3)c2)CCC2CCC(C(=O)NC(c3ccccc3)c3ccccc3)N2C1=O (stereo unspecified)	> 1000 nM	89.1% [middle of 14 runs]	–	–	–	102% and 96.8% and 85%	–	IC50 (compound alone, run of 10/24/2022): > 1000 nM; IC50 (compound alone, run of 11/15/2022): > 1000 nM
Cc1c(S(C)(=O)=O)c(-c2cc(F)cc(N3CCN(c4ccc(NS(=O)(=O)c5ccc(NC(CCN6CCC(C(=O)OCCCP(=O)(O)O)CC6)CSc6ccccc6)c(S(=O)(=O)C(F)(F)F)c5)cc4)CC3)c2)c(-c2ccc(Cl)cc2)n1C(C)C (stereo unspecified)	–	–	–	–	–	–	–	IC50 [1]: > 10000 nM and 2630 nM
NC(=O)C(=Cn1cnc(-c2cc(C(F)(F)F)cc(C(F)(F)F)c2)n1)c1cncnc1	23.9 nM and 16.6 nM and 17.7 nM	–	–	–	–	–	–	viability, T/C (compound 0.000949 µM): 97.2% and 85.3% and 90.9%; viability, T/C (compound 0.003 µM): 94.1% and 76.9% and 88.4%; viability, T/C (compound 0.00949 µM): 67.6% and 69.8% and 61.6%; viability, T/C (compound 0.03 µM): 46.4% and 29.8% and 40.1%; viability, T/C (compound 0.0949 µM): 18.6% and 11.1% and 9.98%; viability, T/C (compound 0.3 µM): 1.34% and 1.15% and 1.13%
NC1CCC(NC2CC2c2ccccc2)CC1 (stereo unspecified)	> 100 nM	61% and 59.4% and 54.2%	59.8% and 53.7% and 49.7%	–	–	58.7% and 61.8% and 52.4%	53.8% and 56.1% and 47%	viability, T/C (compound 0.000316 µM): 71.8% and 62.3% and 60.2%; viability, T/C (compound 0.001 µM): 68.3% and 66.5% and 58.3%

The next lines start with results.

IC50 (curve of compound)	SMILES	viability, T/C (compound 0.0316 µM)	viability, T/C (compound 0.1 µM)	viability, T/C (compound 0.316 µM)	viability, T/C (compound 1 µM)	viability, T/C (compound 0.00316 µM)	viability, T/C (compound 0.01 µM)	other results
> 10000 nM and 8850 nM	C#Cc1c(F)ccc2cc(O)cc(-c3ncc4c(N5CC6CCC(C5)N6)nc(OCC56CCCN5CC(F)C6)nc4c3F)c12 (stereo unspecified)	97.9% and 106% and 112%	101% and 94.9% and 106%	97.4% and 92.7% and 94%	105% and 102% and 90.2%	–	–	viability, T/C (compound 3.16 µM): 91.3% and 93.7% and 92.3%; viability, T/C (compound 10 µM): 74.2% and 53.3% and 44.5%
1430 nM and 1580 nM and 1410 nM	C=C(F)C(=O)N1CCN(c2nc(OCC3CCCN3C)nc3c2CCN(c2cccc4cccc(Cl)c24)C3)CC1CC#N (stereo unspecified)	102% and 104% and 97.2%	100% and 111% and 98.8%	89.8% and 89.1% and 90.5%	70.2% and 80.1% and 70%	–	–	viability, T/C (compound 3.16 µM): 5.2% and 4.65% and 3.69%; viability, T/C (compound 10 µM): 0.22% and 0.2% and 0.21%
201 nM and 80.5 nM and 328 nM	CCN1CCN(Cc2ccc(Nc3ncc(F)c(-c4cc(F)c5nc(C)n(C(C)C)c5c4)n3)nc2)CC1	65.6% and 73.6% and 78.9%	59.6% and 44.7% and 74.7%	49.6% and 35.2% and 46.9%	27.2% and 30.8% and 28.5%	102% and 74.4% and 98.4%	94.4% and 70.5% and 78.7%	–
36.8 nM and 53.1 nM and 71.8 nM	COc1c(OCCCN2CCOCC2)ccc2c3n(c(=NC(=O)c4cnc(N)nc4)nc12)CCN3	49.7% and 56.5% and 61.6%	32.7% and 39.2% and 46.4%	23.3% and 23.6% and 26.9%	13.1% and 13.5% and 11.5%	91.6% and 98.3% and 96.8%	79.1% and 86.2% and 79.5%	–
> 3000 nM	Cc1nc(N2CCC3(CC2)COC(C)C3N)c(CO)nc1Sc1ccnc(N)c1Cl (stereo unspecified)	–	–	–	–	–	–	viability, T/C (compound 0.00949 µM): 96.6% and 103% and 111%; viability, T/C (compound 0.03 µM): 96.7% and 113% and 106%; viability, T/C (compound 0.0949 µM): 96.6% and 108% and 102%; viability, T/C (compound 0.3 µM): 99.3% and 106% and 105%; viability, T/C (compound 0.949 µM): 91.7% (2×) and 88.5%; viability, T/C (compound 3 µM): 67.1% and 75.8% and 68.5%
38.8 nM and > 100 nM and 42.6 nM	Cn1ncnc1[C@H]1c2n[nH]c(=O)c3cc(F)cc(c23)N[C@@H]1c1ccc(F)cc1	57.3% and 55.5% and 65.2%	25.6% and 69.3% and 22.8%	–	–	90.7% and 96% and 83.2%	70.8% and 84.3% and 72.3%	viability, T/C (compound 0.000316 µM): 93.9% and 100% and 96.2%; viability, T/C (compound 0.001 µM): 94.1% and 95.6% and 96.7%
2810 nM and 3510 nM and 3970 nM	O=C(c1cc(Cc2n[nH]c(=O)c3ccccc23)ccc1F)N1CCN(C(=O)C2CC2)CC1	87.4% and 98% and 105%	90.4% and 103% and 91.2%	86.4% and 63% and 94.2%	78.5% and 87.6% and 98.6%	–	–	viability, T/C (compound 3.16 µM): 46.7% and 54.1% and 59.5%; viability, T/C (compound 10 µM): 15.5% and 12.1% and 11.8%
522 nM and 567 nM and 590 nM	O=C(c1ccc(F)c(F)c1Nc1ccc(I)cc1F)N1CC(O)([C@@H]2CCCCN2)C1	83.1% and 103% and 102%	92.8% and 102% and 122%	73.6% and 74.8% and 78.3%	19.4% and 25.9% and 26%	97.1% and 106% and 100%	99.7% and 107% and 102%	–
